This passage reports Kd results from BindingDB's records for doi:10.1016/0960-894X(95)00404-H (1995).

A short description of the assay: Binding affinity to protein phosphatase, calcineurin (CN) was determined.

Turning to `CCC(C)C1C(=O)CC[C@@H](C)[C@@H](CCc2cccnc2)OC(=O)[C@@H]2CCCN(C2)C(=O)C(=O)CCSCC[C@@H](OC)C[C@@H](C)CC(=O)N1C` (stereo partly drawn) [(9S,11R,19R,20R,23R)-15-sec-Butyl-9-methoxy-11,14,19-trimethyl-20-(2-pyridin-3-yl-ethyl)-21-oxa-6-thia-1,14-diaza-bicyclo[21.3.1]heptacosane-2,3,13,16,22-pentaone], the Kd was > 1000 nM.
Then `CCCC1C(=O)CC[C@@H](C)[C@@H](CCc2cccnc2)OC(=O)[C@@H]2CCCN(C2)C(=O)C(=O)CSCC[C@@H](OC)C[C@@H](C)CC(=O)N1C` (stereo partly drawn) [(8S,10R,18R,19R,22R)-8-Methoxy-10,13,18-trimethyl-14-propyl-19-(2-pyridin-3-yl-ethyl)-20-oxa-5-thia-1,13-diaza-bicyclo[20.3.1]hexacosane-2,3,12,15,21-pentaone], with > 1000 nM; and `CCCC1C(=O)CC[C@@H](C)[C@@H](CCc2cccnc2)OC(=O)[C@@H]2CCCN(C2)C(=O)C(O)CC[S+]([O-])CC[C@@H](OC)C[C@@H](C)CC(=O)N1C` (stereo partly drawn) [(9S,11R,19R,20R,23R)-3-Hydroxy-9-methoxy-11,14,19-trimethyl-6-oxo-15-propyl-20-(2-pyridin-3-yl-ethyl)-21-oxa-6lambda*4*-thia-1,14-diaza-bicyclo[21.3.1]heptacosane-2,13,16,22-tetraone], with > 1000 nM; and `C=CC[C@@H]1/C=C(\C)C[C@H](C)C[C@H](OC)[C@@H](O)[C@@H](OC)C[C@@H](C)CC(=O)C(=O)N2CCCC[C@H]2C(=O)O[C@H](/C(C)=C/[C@@H]2CC[C@@H](O)[C@H](OC)C2)[C@H](C)[C@@H](O)CC1=O` [18-(E)-allyl-11,21-Dihydroxy-23-[2-((R)-4-hydroxy-3-methoxy-cyclohexyl)-1-methyl-vinyl]-10,12-dimethoxy-8,14,16,22-pentamethyl-1,3,4,7,8,9,10,11,12,13,14,15,18,20,21,22,23,25a-octadecahydro-2H-24-oxa-4a-aza-benzocyclotricosene-5,6,19,25-tetraone], with 350 nM.
Consider `C=CC[C@@H]1/C=C(\C)C[C@H](C)C[C@H](OC)[C@@H](O)[C@@H](OC)C[C@@H](C)c2ncoc2C(=O)N2CCCC[C@H]2C(=O)O[C@H](/C(C)=C/[C@@H]2CC[C@@H](O)[C@H](OC)C2)[C@H](C)C(O)CC1=O` (stereo partly drawn) [(E)-18-Allyl-11,21-dihydroxy-23-[(E)-2-((R)-4-hydroxy-3-methoxy-cyclohexyl)-1-methyl-vinyl]-10,12-dimethoxy-8,14,16,22-tetramethyl-4,24-dioxa-1,6-diaza-tricyclo[24.4.0.0*3,7*]triaconta-3(7),5,16-triene-2,19,25-], for which the Kd worked out at 300 nM.
Then `C=CC[C@@H]1/C=C(\C)C[C@H](C)C[C@H](OC)[C@H]2O[C@@](O)(C(=O)C(=O)N3CCCC[C@H]3C(=O)O[C@H](/C(C)=C/[C@@H]3CC[C@@H](O)[C@H](OC)C3)[C@H](C)[C@@H](O)CC1=O)[C@H](C)C[C@@H]2OC`, with 20 nM.

By Kd is commonly meant a measure of binding affinity in units of concentration.
